Experiments:
[1] = Displacement of [3H]Spiperone from recombinant human Dopamine D4.4 receptor expressed in CHO-K1 cell membranes after 120 mins
[2] = Displacement of [3H]Spiperone from recombinant human Dopamine D4.4 receptor expressed in CHO-K1 cell membranes at 10 uM after 120 mins relative to control

Structure (SMILES)	IC50 [1] [nM]	Ki [1] [nM]	inhibition [2] [%]
COc1ccc2cc(CN3CCC(F)(F)[C@@H](CCc4ccccc4)C3)c(OC)nc2c1			25
FC1(F)CCN(Cc2c[nH]c3cc(Cl)ccc23)C[C@@H]1CCc1ccccc1			58
Fc1ccc2c(CN3CCC(F)(F)[C@@H](CCc4ccccc4)C3)c[nH]c2c1			64
CCOc1ccccc1CN1CCC(F)(F)C(CCc2ccccc2)C1 (racemic)			49
COc1ccc(CN2CCC(F)(F)C(CCc3ccccc3)C2)cc1OC (racemic)			77
COc1cccc(CCC2CN(Cc3ccc(Cl)cc3)CCC2(F)F)c1 (racemic)			67
COc1cccc(CCC2CN(Cc3ncn4ccccc34)CCC2(F)F)c1 (racemic)			66
COc1cccc2ccc(CN3CCC(F)(F)C(CCc4ccccc4)C3)nc12 (racemic)			54
COc1ccccc1CCC1CN(Cc2c[nH]c3cccc(F)c23)CCC1(F)F (racemic)			3
FC(F)(F)Oc1ccc(CN2CCC(F)(F)C(CCc3ccccc3)C2)cc1 (racemic)			70
FC(F)(F)c1cc(CN2CCC(F)(F)C(CCc3ccccc3)C2)cc(C(F)(F)F)c1 (racemic)			0
FC(F)(F)c1ccc(CN2CCC(F)(F)C(CCc3ccccc3)C2)cc1 (racemic)			79
FC(F)(F)c1cccc(CN2CCC(F)(F)C(CCc3ccccc3)C2)c1 (racemic)			48
FC1(F)CCN(Cc2cc3ccccc3s2)CC1CCc1ccccc1 (racemic)			51
FC1(F)CCN(Cc2ccc3[nH]ncc3c2)CC1CCc1ccccc1 (racemic)			68
FC1(F)CCN(Cc2ccc3ccccc3n2)CC1CCc1ccccc1 (racemic)			70
FC1(F)CCN(Cc2cccc(Cl)c2)CC1CCc1ccccc1 (racemic)			55
FC1(F)CCN(Cc2cccc3c2OCO3)CC1CCc1ccccc1 (racemic)			18
FC1(F)CCN(Cc2nc3cc(Cl)ccc3cc2Cl)CC1CCc1ccccc1 (racemic)			16
Fc1ccc(CN2CCC(F)(F)C(CCc3ccccc3)C2)c(Cl)c1 (racemic)			6
Fc1ccc2nc(CN3CCC(F)(F)C(CCc4ccccc4)C3)ccc2c1 (racemic)			66
Fc1cccc(CCC2CN(Cc3c[nH]c4cccc(F)c34)CCC2(F)F)c1 (racemic)			59
Fc1cccc(CCC2CN(Cc3ncn4ccccc34)CCC2(F)F)c1 (racemic)			78
Fc1cccc(Cl)c1CN1CCC(F)(F)C(CCc2ccccc2)C1 (racemic)			10
Fc1cccc2ccc(CN3CCC(F)(F)C(CCc4ccccc4)C3)nc12 (racemic)			69
Fc1ccccc1CCC1CN(Cc2c[nH]c3cccc(F)c23)CCC1(F)F (racemic)			62
N#Cc1cc(CN2CCC(F)(F)C(CCc3ccccc3)C2)ccc1F (racemic)			66
N#Cc1ccccc1CN1CCC(F)(F)C(CCc2ccccc2)C1 (racemic)			10

Now from value to compound, other results behind:

IC50 [1] [nM]	Structure (SMILES)	Ki [1] [nM]	inhibition [2] [%]
130	Clc1ccc(CN2CCO[C@H](CCc3ccccc3)C2)cc1	36	
56	COc1ccc(CN2CCO[C@H](COc3ccccc3)C2)cc1F	14.3	
5990	Fc1ccccc1CC[C@H]1CN(Cc2c[nH]c3cc(Cl)ccc23)CCC1(F)F	1660	59
3200	Fc1ccc(CC[C@H]2CN(Cc3c[nH]c4cc(Cl)ccc34)CCC2(F)F)cc1	890	73
> 10000	Cc1ccc(CN2CCC(F)(F)[C@@H](CCc3ccccc3)C2)cc1C		
1540	COc1cccc(CCC2CN(Cc3c[nH]c4cc(F)ccc34)CCC2(F)F)c1 (racemic)	430	88
45	COc1ccc2c(CN3CCC(F)(F)C(CCc4cccc(F)c4)C3)c[nH]c2c1 (racemic)	12.5	93
1360	FC1(F)CCN(Cc2ccc3ncccc3c2)CC1CCc1ccccc1 (racemic)	380	87
230	COc1ccccc1CCC1CN(Cc2c[nH]c3cc(Cl)ccc23)CCC1(F)F (racemic)	64	94
550	COc1cccc(CCC2CN(Cc3c[nH]c4cc(OC)ccc34)CCC2(F)F)c1 (racemic)	150	89
37	COc1ccc2c(CN3CCC(F)(F)C(CCc4ccc(F)cc4)C3)c[nH]c2c1 (racemic)	10.3	96
640	COc1ccc(CCC2CN(Cc3c[nH]c4cc(Cl)ccc34)CCC2(F)F)cc1 (racemic)	180	88
160	Fc1cccc(CCC2CN(Cc3c[nH]c4cc(Cl)ccc34)CCC2(F)F)c1 (racemic)	44	94
25	Fc1ccc(CCC2CN(Cc3c[nH]c4cc(F)ccc34)CCC2(F)F)cc1 (racemic)	7	94
370	COc1ccc2c(CN3CCC(F)(F)C(CCc4ccccc4OC)C3)c[nH]c2c1 (racemic)	100	76
98	Fc1ccccc1CCC1CN(Cc2ccc(Cl)cc2)CCC1(F)F (racemic)	27	92
510	CSc1ccc(CN2CCC(F)(F)C(CCc3ccccc3)C2)cc1 (racemic)	140	93
790	FC1(F)CCN(Cc2ccc3ccccc3c2)CC1CCc1ccccc1 (racemic)	220	80
31	Fc1ccc2c(CN3CCC(F)(F)C(CCc4ccccc4F)C3)c[nH]c2c1 (racemic)	8.6	95
430	COc1ccc(CCC2CN(Cc3c[nH]c4cc(OC)ccc34)CCC2(F)F)cc1 (racemic)	120	93
760	FC1(F)CCN(Cc2ccc(Cl)cc2)CC1CCc1ccccc1 (racemic)	210	80
480	COc1ccc(CCC2CN(Cc3c[nH]c4cc(F)ccc34)CCC2(F)F)cc1 (racemic)	130	91
110	COc1ccc(CN2CCC(F)(F)C(CCc3ccccc3)C2)cc1F (racemic)	31	88
65	Fc1ccc(CCC2CN(Cc3ccc(Cl)cc3)CCC2(F)F)cc1 (racemic)	17.9	95
430	COc1ccc(CN2CCC(F)(F)C(CCc3ccccc3)C2)cc1 (racemic)	120	87
150	Fc1ccccc1CCC1CN(Cc2ncn3ccccc23)CCC1(F)F (racemic)	42	92
170	COc1ccccc1CCC1CN(Cc2c[nH]c3cc(F)ccc23)CCC1(F)F (racemic)	48	94
300	FC1(F)CCN(Cc2cccc3cc[nH]c23)CC1CCc1ccccc1 (racemic)	84	88
230	COc1ccccc1CCC1CN(Cc2ccc(Cl)cc2)CCC1(F)F (racemic)	63	75

— ChEMBL document CHEMBL3868641, “Discovery, characterization and biological evaluation of a novel (R)-4,4-difluoropiperidine scaffold as dopamine receptor 4 (D4R) antagonists” (Bioorg Med Chem Lett, 2016)
